Test results reported in ChEMBL document CHEMBL1201862, “PubChem BioAssay data set” (2004).
Active and inactive are the calls of the source.

How the values were obtained:
BJ [1] = assay: BJ-TERT-LT-ST fibroblast viability loss – cell-based, RAS-independent, luminescence, dose response (AID 1935); type: functional, Homo sapiens; conditions: Homo sapiens, BJ;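 also: BJ fibroblasts immortalized with TERT plus LT and ST oncogenes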
BJ [2] = assay: BJ-TERT fibroblast viability loss – cell-based, RAS-independent, luminescence, dose response (AID 1933); type: functional, Homo sapiens; conditions: Homo sapiens, BJ
[3] = biological target: T1, Corticotropin-releasing factor receptor 2/Corticotropin-releasing factor-binding protein (Homo sapiens, UniProt P24387+Q13324); assay: activators of CRF receptor 2 with binding protein – uHTS hits, confirmation (AID 602473); type: functional; conditions: read-out: EC50_Mean
T1 sequence (Q13324 whole entry): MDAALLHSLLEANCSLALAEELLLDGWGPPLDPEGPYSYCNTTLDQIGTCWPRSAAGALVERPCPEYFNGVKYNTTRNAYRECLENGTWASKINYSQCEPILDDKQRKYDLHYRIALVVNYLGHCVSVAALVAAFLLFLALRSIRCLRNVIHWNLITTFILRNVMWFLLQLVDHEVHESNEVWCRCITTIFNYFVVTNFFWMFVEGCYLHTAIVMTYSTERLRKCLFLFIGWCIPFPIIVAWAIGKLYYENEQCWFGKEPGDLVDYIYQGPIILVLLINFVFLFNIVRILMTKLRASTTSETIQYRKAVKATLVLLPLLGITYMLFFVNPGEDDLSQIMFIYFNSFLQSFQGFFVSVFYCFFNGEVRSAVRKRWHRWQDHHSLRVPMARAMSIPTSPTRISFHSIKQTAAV
T1 sequence (P24387 whole entry): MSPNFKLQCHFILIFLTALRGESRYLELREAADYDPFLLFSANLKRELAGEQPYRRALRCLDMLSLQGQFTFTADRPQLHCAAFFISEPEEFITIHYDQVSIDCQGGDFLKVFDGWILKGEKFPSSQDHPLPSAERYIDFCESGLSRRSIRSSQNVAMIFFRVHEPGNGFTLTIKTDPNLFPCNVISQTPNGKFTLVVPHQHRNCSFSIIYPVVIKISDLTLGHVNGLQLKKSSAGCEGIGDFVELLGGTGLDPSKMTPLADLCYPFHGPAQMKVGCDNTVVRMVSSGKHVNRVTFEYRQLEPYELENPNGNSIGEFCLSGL

[4] = blockers of CRF-binding protein–CRF-R2 complex – cell-based, uHTS hits, 384-well, dose response (AID 651639); type: functional, Homo sapiens; conditions: read-out: IC50_Mean
[5] = DRD fibroblast viability loss – cell-based, non-viral oncogenic, luminescence, dose response (AID 1934); type: functional; conditions: Homo sapiens
BJ [6] = assay: cells; type: functional, cell-based, Homo sapiens; conditions: Homo sapiens, BJ
[7] = biological target: T1, Corticotropin-releasing factor receptor 2/Corticotropin-releasing factor-binding protein; assay: Dose Response confirmation of uHTS hits for small molecule antagonists of the CRF-binding protein and CRF-R2 receptor complex.; type: functional; conditions: read-out: IC50_Mean
[8] = biological target: T2, Sentrin-specific protease 8 (Homo sapiens, UniProt Q96LD8); type: functional;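 also: luminescence read-out of SENP8 inhibition, dose-response confirmation following an ultra-high-throughput screen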
T2 sequence (Q96LD8 whole entry): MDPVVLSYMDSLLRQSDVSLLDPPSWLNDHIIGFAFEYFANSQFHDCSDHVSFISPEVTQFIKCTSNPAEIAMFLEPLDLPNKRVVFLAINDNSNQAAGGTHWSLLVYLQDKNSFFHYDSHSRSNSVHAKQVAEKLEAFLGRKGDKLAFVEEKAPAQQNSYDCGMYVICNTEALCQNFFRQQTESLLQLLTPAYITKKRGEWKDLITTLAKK

[9] = biological target: T3, Sentrin-specific protease 6 (Homo sapiens, UniProt Q9GZR1); type: functional;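 also: Luminescence-based dose-response confirmatory assay of SENP6 inhibition, following up an ultra-high-throughput screen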
T3 sequence (Q9GZR1 whole entry): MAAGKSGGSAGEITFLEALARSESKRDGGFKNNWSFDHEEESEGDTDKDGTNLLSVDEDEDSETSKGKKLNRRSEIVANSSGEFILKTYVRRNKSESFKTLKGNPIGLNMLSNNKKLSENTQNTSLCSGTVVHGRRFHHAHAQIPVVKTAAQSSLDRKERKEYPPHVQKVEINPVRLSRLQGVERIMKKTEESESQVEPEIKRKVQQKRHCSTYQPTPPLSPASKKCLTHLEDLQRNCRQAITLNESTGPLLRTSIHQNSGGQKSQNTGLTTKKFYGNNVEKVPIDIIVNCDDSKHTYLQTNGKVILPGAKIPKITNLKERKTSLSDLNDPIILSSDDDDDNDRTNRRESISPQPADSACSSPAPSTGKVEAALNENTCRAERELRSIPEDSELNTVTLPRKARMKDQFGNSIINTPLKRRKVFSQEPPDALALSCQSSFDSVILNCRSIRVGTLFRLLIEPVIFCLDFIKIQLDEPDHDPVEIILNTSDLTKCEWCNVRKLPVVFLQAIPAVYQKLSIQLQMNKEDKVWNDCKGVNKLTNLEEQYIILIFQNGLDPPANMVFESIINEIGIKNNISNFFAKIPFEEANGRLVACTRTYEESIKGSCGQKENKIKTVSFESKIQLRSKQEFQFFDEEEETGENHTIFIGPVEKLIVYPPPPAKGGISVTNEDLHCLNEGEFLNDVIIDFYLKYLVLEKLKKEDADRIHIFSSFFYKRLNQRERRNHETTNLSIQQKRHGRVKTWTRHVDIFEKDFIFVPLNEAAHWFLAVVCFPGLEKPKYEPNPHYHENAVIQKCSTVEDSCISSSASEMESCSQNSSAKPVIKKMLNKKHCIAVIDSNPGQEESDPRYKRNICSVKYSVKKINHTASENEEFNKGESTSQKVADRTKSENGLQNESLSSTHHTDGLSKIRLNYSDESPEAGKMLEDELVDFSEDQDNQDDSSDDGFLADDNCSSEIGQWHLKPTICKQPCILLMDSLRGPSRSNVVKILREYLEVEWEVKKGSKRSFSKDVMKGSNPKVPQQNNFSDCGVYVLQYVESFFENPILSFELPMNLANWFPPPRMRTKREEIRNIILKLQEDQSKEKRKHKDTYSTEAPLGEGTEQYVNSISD

Caspase-3 = biological target: T4, Caspase-3 (Homo sapiens, UniProt P42574); type: functional;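 also: Dose-response selectivity test against caspase-3 for candidate inhibitors of sentrin-specific proteases (SENPs)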
T4 sequence (P42574 whole entry): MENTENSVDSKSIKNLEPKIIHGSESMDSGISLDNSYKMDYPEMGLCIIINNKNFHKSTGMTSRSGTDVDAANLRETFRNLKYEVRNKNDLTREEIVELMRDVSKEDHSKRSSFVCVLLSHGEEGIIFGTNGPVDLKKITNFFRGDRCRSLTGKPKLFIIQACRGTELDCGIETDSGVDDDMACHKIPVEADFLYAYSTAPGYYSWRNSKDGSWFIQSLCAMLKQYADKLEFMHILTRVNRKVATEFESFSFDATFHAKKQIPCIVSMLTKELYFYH

[10] = biological target: T5, Sentrin-specific protease 7 (Homo sapiens, UniProt Q9BQF6); type: functional;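 also: Luminescence-based dose-response confirmation of ultra-high-throughput screening hits, measuring inhibition of SENP7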
T5 sequence (Q9BQF6 whole entry): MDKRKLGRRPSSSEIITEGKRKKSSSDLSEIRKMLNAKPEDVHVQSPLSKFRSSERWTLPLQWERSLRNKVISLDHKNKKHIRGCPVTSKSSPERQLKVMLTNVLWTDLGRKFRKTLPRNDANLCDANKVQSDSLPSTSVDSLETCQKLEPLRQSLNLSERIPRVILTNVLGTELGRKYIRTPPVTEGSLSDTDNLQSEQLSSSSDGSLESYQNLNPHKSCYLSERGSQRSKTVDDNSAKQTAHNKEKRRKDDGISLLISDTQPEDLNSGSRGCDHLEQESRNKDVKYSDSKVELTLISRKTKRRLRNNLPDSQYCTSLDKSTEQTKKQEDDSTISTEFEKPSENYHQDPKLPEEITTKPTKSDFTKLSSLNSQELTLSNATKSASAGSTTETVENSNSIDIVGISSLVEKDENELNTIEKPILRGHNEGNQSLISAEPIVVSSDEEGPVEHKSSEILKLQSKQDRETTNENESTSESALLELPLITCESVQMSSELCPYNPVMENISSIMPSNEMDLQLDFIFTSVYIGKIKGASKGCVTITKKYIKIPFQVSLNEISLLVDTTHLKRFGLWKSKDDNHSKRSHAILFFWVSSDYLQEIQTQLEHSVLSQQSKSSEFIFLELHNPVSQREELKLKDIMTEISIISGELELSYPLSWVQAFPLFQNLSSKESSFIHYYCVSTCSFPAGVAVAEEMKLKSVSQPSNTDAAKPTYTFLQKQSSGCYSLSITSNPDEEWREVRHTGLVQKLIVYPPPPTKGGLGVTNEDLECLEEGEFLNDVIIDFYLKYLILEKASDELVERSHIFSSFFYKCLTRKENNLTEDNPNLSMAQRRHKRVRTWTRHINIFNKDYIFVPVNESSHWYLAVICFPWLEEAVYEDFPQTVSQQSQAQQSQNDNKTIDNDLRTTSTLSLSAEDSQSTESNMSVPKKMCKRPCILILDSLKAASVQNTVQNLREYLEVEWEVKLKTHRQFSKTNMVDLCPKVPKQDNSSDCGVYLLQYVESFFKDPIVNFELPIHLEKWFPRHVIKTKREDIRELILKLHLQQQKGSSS

[11] = biological target: T6, Low molecular weight phosphotyrosine protein phosphatase (Homo sapiens, UniProt P24666); type: functional; conditions: read-out: IC50_Mean;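 also: Dose-response confirmation assay measuring inhibition of LMPTP enzyme activity by fluorescence intensity read-out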
T6 sequence (P24666 whole entry): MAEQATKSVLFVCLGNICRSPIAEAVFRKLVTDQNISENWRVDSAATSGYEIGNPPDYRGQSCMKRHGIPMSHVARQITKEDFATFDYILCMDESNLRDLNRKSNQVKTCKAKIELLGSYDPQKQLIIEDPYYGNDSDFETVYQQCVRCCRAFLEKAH

Protein Wnt-3a = Protein Wnt-3a (Mus musculus, UniProt P27467); assay: antagonism of Wnt3a pathway luciferase reporter – Wnt-LIGHT cells, luminescence, selectivity assay for Gli-SUFU antagonist project, dose response (AID 651570); type: functional; conditions: read-out: IC50_Mean;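 also: Wnt-LIGHT reporter cells stimulated with conditioned medium from Wnt3a-producing cells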
Protein Wnt-3a, sequence (P27467 whole entry): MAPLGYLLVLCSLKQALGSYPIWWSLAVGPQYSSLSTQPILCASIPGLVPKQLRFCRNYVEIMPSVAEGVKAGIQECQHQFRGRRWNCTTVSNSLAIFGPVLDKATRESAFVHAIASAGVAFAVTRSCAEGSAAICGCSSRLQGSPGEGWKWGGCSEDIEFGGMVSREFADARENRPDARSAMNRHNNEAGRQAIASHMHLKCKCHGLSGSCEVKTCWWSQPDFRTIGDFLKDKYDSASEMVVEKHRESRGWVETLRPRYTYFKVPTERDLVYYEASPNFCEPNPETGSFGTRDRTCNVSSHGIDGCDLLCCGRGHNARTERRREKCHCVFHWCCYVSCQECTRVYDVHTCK

[12] = Trypanosoma cruzi growth suppression in host cells – NIH3T3 host cells, beta-gal luminescence, confirmation (AID 2044); type: functional, cell-based;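 also: intracellular parasites grown in NIH/3T3 mouse fibroblasts as host cells; luminescent beta-galactosidase reporter signal from transgenic T. cruzi replicating inside host cells; inhibitors lower the luminescence signal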
[13] = NIH3T3 cell viability loss – ATP luminescence, mouse fibroblasts, counter-screen, dose response (AID 2010); type: functional, cell-based;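 also: cells exposed to compound for about 90 hours before reading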
[14] = HGIII-sPLA2 enzyme inhibition potency – biochemical, QFRET, IC50, dose response (AID 743457);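 also: green fluorescence rise as the enzyme cleaves BODIPY PC-A2 in liposomes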
[15] = biological target: T7, Polyadenylate-binding protein 1 (Homo sapiens, UniProt P11940); assay: MLLE binding blockers, Cy5 peptide tracer – biochemical, fluorescence polarization, Cy5-PAM2 peptide, secondary, miRNA deadenylation inhibitor project, dose response (AID 602260); type: functional; conditions: read-out: IC50_Mean
T7 sequence (P11940 whole entry, the tested form may be a part): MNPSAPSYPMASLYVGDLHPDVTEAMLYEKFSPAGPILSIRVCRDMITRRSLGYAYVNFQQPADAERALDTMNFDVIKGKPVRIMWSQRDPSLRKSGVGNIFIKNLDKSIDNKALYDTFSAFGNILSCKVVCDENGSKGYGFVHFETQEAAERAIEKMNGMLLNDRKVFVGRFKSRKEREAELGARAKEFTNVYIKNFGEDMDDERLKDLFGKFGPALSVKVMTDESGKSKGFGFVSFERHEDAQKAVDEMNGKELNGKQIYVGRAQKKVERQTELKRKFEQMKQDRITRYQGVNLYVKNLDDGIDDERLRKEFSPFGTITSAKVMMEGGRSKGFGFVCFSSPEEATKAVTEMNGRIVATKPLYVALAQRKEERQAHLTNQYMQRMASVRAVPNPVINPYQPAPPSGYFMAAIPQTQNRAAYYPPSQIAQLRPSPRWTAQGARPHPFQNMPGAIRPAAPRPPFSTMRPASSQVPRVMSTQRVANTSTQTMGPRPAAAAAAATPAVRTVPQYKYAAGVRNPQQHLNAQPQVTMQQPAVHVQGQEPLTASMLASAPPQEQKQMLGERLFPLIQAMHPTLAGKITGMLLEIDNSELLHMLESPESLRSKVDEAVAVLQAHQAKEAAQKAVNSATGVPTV

[16] = biological target: T7, Polyadenylate-binding protein 1; assay: MLLE domain peptide-binding blockers, IC50 – biochemical, fluorescence polarization, FITC-PAM2 peptide, dose response (AID 602259); type: functional; conditions: read-out: IC50_Mean
[17] = OVCAR8 cell viability loss – plate reader, dry powder samples, PAX8 project, dose response (AID 743197); type: functional, cell-based; conditions: OVCAR-8
[18] = IGROV1 cell killing – plate reader, dry powder samples, PAX8 inhibitor project, dose response (AID 743043); type: functional, cell-based; conditions: IGROV-1
Paired box protein Pax-8 = Paired box protein Pax-8 (Homo sapiens, UniProt Q06710); assay: PAX8 transcriptional activity inhibition in RMG-I – RMG-I cells, luciferase, cherry-pick, dose response (AID 687027); type: functional, cell-based;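 also: luciferase reporter driven by Pax8 target thyroperoxidase promoter measured by SteadyGlo luminescence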
Paired box protein Pax-8, sequence (Q06710 whole entry): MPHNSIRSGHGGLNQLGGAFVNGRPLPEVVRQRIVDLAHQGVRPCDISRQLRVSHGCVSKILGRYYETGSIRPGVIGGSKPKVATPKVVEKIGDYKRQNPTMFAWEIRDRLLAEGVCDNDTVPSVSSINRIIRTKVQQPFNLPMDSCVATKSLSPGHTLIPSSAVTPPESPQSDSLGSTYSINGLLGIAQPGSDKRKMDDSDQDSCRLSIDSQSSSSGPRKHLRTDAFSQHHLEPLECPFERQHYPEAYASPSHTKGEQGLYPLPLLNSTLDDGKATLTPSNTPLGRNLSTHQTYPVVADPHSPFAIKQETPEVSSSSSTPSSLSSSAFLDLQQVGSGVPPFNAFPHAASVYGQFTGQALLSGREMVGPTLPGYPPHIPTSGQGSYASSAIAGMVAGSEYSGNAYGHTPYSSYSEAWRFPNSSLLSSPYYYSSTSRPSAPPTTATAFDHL

[19] = OVCAR-3 cell viability loss – plate reader, dry powder samples, PAX8 inhibitor project, dose response (AID 743044); type: functional, cell-based

SMILES: Oc1cc(C(F)(F)F)nc2ccc(OC(F)(F)F)cc12
- EC50 (BJ [1]): > 150 µM (not active)
- EC50 (BJ [2]): 38.8 µM (active)
- EC50 [3]: 5.39 µM (active)
- IC50 [4]: > 20 µM (inactive)
- EC50 [5]: 38.4 µM (active)
- EC50 (BJ [6]): 41.4 µM (active)
- IC50 [7]: 4.24 µM (active)

SMILES: COc1ccc(NC(=O)NC(C)c2ccc3c(c2)OCO3)c(OC)c1 (centres undefined)
- EC50 [3]: > 53 µM (inactive)
- IC50 [4]: > 20 µM (inactive)
- IC50 [7]: < 0.368 µM (active)

SMILES: CCOC(=O)/C=C(\C)N1N=C(c2ccccc2)CC1c1ccccc1 (centres undefined)
- IC50 [8]: 36.1 µM (active)
- IC50 [9]: 19.7 µM (active)
- IC50 (Caspase-3): 19.8 µM (active)
- IC50 [10]: 6.48 µM (active)

SMILES: O=C1/C(=C/N(C(=O)c2ccco2)c2ccc(Br)cc2)Sc2ccccc21
- IC50 [8]: 24.7 µM (active)
- IC50 [9]: 19 µM (active)
- IC50 (Caspase-3): 16.2 µM (active)
- IC50 [10]: 13.9 µM (active)

SMILES: N=c1c(C(=O)NCc2ccco2)cc2c(=O)n3ccccc3nc2n1Cc1ccc(Cl)cc1
- IC50 [11]: 41.8 µM (inactive)

SMILES: c1ccc(C[n+]2c(-c3ccccc3)cn3c2SCCC3)cc1
- IC50 (Protein Wnt-3a): 7.13 µM (active)

SMILES: CCOc1ccccc1/N=C1\SC(CC(=O)Nc2ccc(OC)cc2OC)C(=O)N1CCC1=CCCCC1 (centres undefined)
- EC50 [12]: 1.98 µM (active)
- EC50 [3]: > 53 µM (inactive)
- EC50 [13]: > 60 µM (not active)
- IC50 [4]: > 20 µM (inactive)
- IC50 [7]: < 0.368 µM (active)

SMILES: C/C(=N\NC(=S)NCCc1ccccc1)c1ccc(O)cc1O
- IC50 [14]: > 122 µM (inactive)
- IC50 [15]: > 66 µM (inactive)
- IC50 [16]: > 66 µM (inactive)

SMILES: C[C@@H]1CN([C@@H](C)CO)C(=O)Cc2cc(NC(=O)Nc3ccc(C(F)(F)F)cc3)ccc2O[C@H]1CN(C)Cc1ccc2c(c1)OCO2
- AC50 [17]: 41.5 µM (active)
- AC50 [18]: 63.7 µM (active)
- AC50 (Paired box protein Pax-8): 7.85 µM (active)
- AC50 [19]: 24 µM (active)

SMILES: O=C1C(=O)N(Cc2ccc(-c3ccc(Cl)nc3)cc2)c2ccc(OC(F)(F)F)cc21
- IC50 [14]: > 122 µM (inactive)

SMILES: COc1ccc(-n2c(SCC(=O)NN=C(S)Nc3ccccc3)nc3ccccc3c2=O)cc1
- IC50 [14]: > 40.6 µM (inactive)
